Laboratory results published in patent US10138255B2, “Piperazine derivatives as HIV protease inhibitors” (Merck Sharp & Dohme Corp., priority 2014, dated 2018).

Test system: HIV-1 (H9IIIB strain)
Assay: Cell-Based HIV Infection Assay Using a Reporter (MT4-GFP cells)
Settings: Human immunodeficiency virus 1, inflection point (IP) of viral growth inhibition; MT4-GFP cells infected with HIV-1 H9IIIB; 50% normal human serum; mean of at least two independent experiments; read-out: Cell Based IP (50% NHS)
In short: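 MT4-GFP cells (HIV LTR-driven GFP) bulk-infected with HIV-1 H9IIIB at low MOI for 24 h, washed, then exposed to compounds in RPMI plus 50% normal human serum, 0.4% DMSO. Infected cells counted at 24 and 48 h; R0 = 48 h/24 h ratio, inhibition normalised to DMSO and triple-drug control; IP from 4-parameter fit.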

Compound | EC50 [µM]
COC(=O)N[C@H](C(=O)Nc1cccc(F)c1CC[C@H]1CN[C@@H]2CCCS(=O)(=O)N1C2)[C@@H](c1ccc(Cl)cc1)C1CCC(C(F)(F)F)OC1 (stereo partly drawn) [Example 273, methyl {(1S,2R)-2-(4-chlorophenyl)-1-[(2-{2-[(6R,9S)-2,2-dioxido-2-thia-1,7-diazabicyclo[4.3.1]dec-9-yl]ethyl}-3-fluorophenyl)carbamoyl]-2-[6-(trifluoromethyl)tetrahydro-2H-pyran-3-yl]ethyl}carbamate] | 0.014
N[C@H](C(=O)N[C@H]1CCCC[C@@H]1CC[C@H]1CN[C@@H]2CCCS(=O)(=O)N1C2)[C@@H](c1ccc(Cl)cc1)c1cc(F)cc(F)c1 [Example 160, (βS)-β-(4-chlorophenyl)-N-[(1S,2R)-2-{2-[(6R,9S)-2,2-dioxido-2-thia-1,7-diazabicyclo[4.3.1]dec-9-yl]ethyl}cyclohexyl]-3,5-difluoro-L-phenylalaninamide] | 0.022
C[C@@H]1C[C@](c2ccc(Cl)cc2)([C@H](N)C(=O)Nc2cccc(F)c2CC[C@H]2CN[C@@H]3CCCS(=O)(=O)N2C3)C[C@H](C)O1 [Example 168, (2S)-2-amino-2-[(2R,4r,6S)-4-(4-chlorophenyl)-2,6-dimethyltetrahydro-2H-pyran-4-yl]-N-(2-{2-[(6R,9S)-2,2-dioxido-2-thia-1,7-diazabicyclo[4.3.1]dec-9-yl]ethyl}-3-fluorophenyl)ethanamide] | 0.17
COC(=O)N[C@H](C(=O)Nc1cccc(F)c1CC[C@H]1CN[C@@H]2CCC(C)S(=O)(=O)N1C2)[C@@H](c1ccc(F)cc1)C1C[C@@H](C)O[C@@H](C)C1 (stereo partly drawn) [Example 109, methyl [(1S,2R)-2-[(2R,6S)-2,6-dimethyltetrahydro-2H-pyran-4-yl]-1-[(3-fluoro-2-{2-[(6R,9S)-3-methyl-2,2-dioxido-2-thia-1,7-diazabicyclo[4.3.1]dec-9-yl]ethyl}phenyl)carbamoyl]-2-(4-fluorophenyl)ethyl]carbamate] | 0.038
CO[C@H]1CC[C@H]([C@H](c2ccc(Cl)cc2)[C@H](N)C(=O)N[C@H]2CCCC[C@@H]2CC[C@H]2CN[C@@H]3CCCS(=O)(=O)N2C3)CC1 [Example 207, (βR)-4-chloro-N-[(1S,2R)-2-{2-[(6R,9S)-2,2-dioxido-2-thia-1,7-diazabicyclo[4.3.1]dec-9-yl]ethyl}cyclohexyl]-β-[(1r,4R)-4-methoxycyclohexyl]-L-phenylalaninamide] | 0.04
COc1cc([C@H](c2ccc(Cl)c(F)c2)[C@H](N)C(=O)Nc2cccc(F)c2CCC2CNC3CCCS(=O)(=O)N2C3)ccn1 (stereo partly drawn) [Example 67, (βR)-4-chloro-N-{2-[2-(2,2-dioxido-2-thia-1,7-diazabicyclo[4.3.1]dec-9-yl)ethyl]-3-fluorophenyl}-3-fluoro-β-(2-methoxypyridin-4-yl)-L-phenylalaninamide] | 0.0045
COC(=O)N[C@@H](C(=O)N[C@H]1CCC[C@@H]1CC[C@H]1CN[C@@H]2CCCS(=O)(=O)N1C2)[C@@H](c1ccc(Cl)cc1)C1CCN(C(=O)OCc2ccccc2)CC1 [Example 137, benzyl 4-{(1R,2R)-1-(4-chlorophenyl)-3-{[(1S,2R)-2-{2-[(6R,9S)-2,2-dioxido-2-thia-1,7-diazabicyclo[4.3.1]dec-9-yl]ethyl}cyclopentyl]amino}-2-[(methoxycarbonyl)amino]-3-oxopropyl}piperidine-1-carboxylate] | 1.3
COC(=O)N[C@H](C(=O)Nc1cccc(F)c1CCC1CNC2CCCS(=O)(=O)N1C2)[C@@H](c1ccc(Cl)cc1)C1CC(F)(F)C1 (stereo partly drawn) [Example 4, Methyl [(1S,2R)-2-(4-chlorophenyl)-2-(3,3-difluorocyclobutyl)-1-({2-[2-(2,2-dioxido-2-thia-1,7-diazabicyclo[4.3.1]dec-9-yl)ethyl]-3-fluorophenyl}carbamoyl)ethyl]carbamate] | 0.013
C[C@@H]1C[C@H](C(c2ccc(F)cc2)[C@H](N)C(=O)Nc2cccc(F)c2CC[C@H]2CN[C@@H]3CCCS(=O)(=O)N2C3)C[C@H](C)O1 (stereo partly drawn) [Example 15, β-[(2R,4r,6S)-2,6-Dimethyltetrahydro-2H-pyran-4-yl]-N-(2-{2-[(6R,9S)-2,2-dioxido-2-thia-1,7-diazabicyclo[4.3.1]dec-9-yl]ethyl}-3-fluorophenyl)-4-fluoro-L-phenylalaninamide] | 0.0088
N[C@H](C(=O)Nc1cccc(F)c1CC[C@H]1CNC2CCCS(=O)(=O)N1C2)[C@@H](c1ccc(Cl)cc1)C1CCS(=O)(=O)CC1 (stereo partly drawn) [Example 158, (βR)-4-chloro-β-(1,1-dioxidotetrahydro-2H-thiopyran-4-yl)-N-(2-{2-[(9S)-2,2-dioxido-2-thia-1,7-diazabicyclo[4.3.1]dec-9-yl]ethyl}-3-fluorophenyl)-L-phenylalaninamide] | 0.11
COC(=O)N[C@H](C(=O)N[C@H]1CCCC[C@@H]1CC[C@H]1CN[C@@H]2CCCS(=O)(=O)N1C2)[C@@H](c1ccc(Cl)cc1)c1ccc(OC)nc1 [Example 98, methyl [(1S,2S)-2-(4-chlorophenyl)-1-{[(1S,2R)-2-{2-[(6R,9S)-2,2-dioxido-2-thia-1,7-diazabicyclo[4.3.1]dec-9-yl]ethyl}cyclohexyl]carbamoyl}-2-(6-methoxypyridin-3-yl)ethyl]carbamate] | 0.047
COC(=O)N[C@H](C(=O)Nc1c(F)ccc(F)c1CC[C@H]1CN[C@@H]2CCCS(=O)(=O)N1C2)[C@@H](c1ccc(Cl)cc1)C1CCOCC1 [Example 32, Methyl [(1S,2R)-2-(4-chlorophenyl)-1-[(2-{2-[(6R,9S)-2,2-dioxido-2-thia-1,7-diazabicyclo[4.3.1]dec-9-yl]ethyl}-3,6-difluorophenyl)carbamoyl]-2-(tetrahydro-2H-pyran-4-yl)ethyl]carbamate] | 0.02
N[C@H](C(=O)Nc1cccc(F)c1CCC1CNC2CCCS(=O)(=O)N1C2)[C@H](c1ccc(F)cc1)C1CC(F)(F)C1 (stereo partly drawn) [Example 64, (βS)-β-(3,3-difluorocyclobutyl)-N-{2-[2-(2,2-dioxido-2-thia-1,7-diazabicyclo[4.3.1]dec-9-yl)ethyl]-3-fluorophenyl}-4-fluoro-L-phenylalaninamide] | 0.26
N[C@H](C(=O)Nc1cccc(F)c1CC[C@H]1CN[C@@H]2CCCS(=O)(=O)N1C2)[C@@H](c1ccc(F)cc1)[C@H]1CC[C@H](O)CC1 [Example 202, (βR)-N-(2-{2-[(6R,9S)-2,2-dioxido-2-thia-1,7-diazabicyclo[4.3.1]dec-9-yl]ethyl}-3-fluorophenyl)-4-fluoro-β-[(1r,4R)-4-hydroxycyclohexyl]-L-phenylalaninamide] | 0.089
COc1ccc([C@H](c2ccc(F)c(F)c2)[C@H](N)C(=O)Nc2cccc(F)c2CCC2CNC3CCCS(=O)(=O)N2C3)cn1 (stereo partly drawn) [Example 66, (βS)-N-{2-[2-(2,2-dioxido-2-thia-1,7-diazabicyclo[4.3.1]dec-9-yl)ethyl]-3-fluorophenyl}-3,4-difluoro-β-(6-methoxypyridin-3-yl)-L-phenylalaninamide] | 0.0082
C[C@@H]1C[C@H]([C@H](c2ccc(Cl)cc2)[C@H](N)C(=O)Nc2cccc(F)c2CC[C@H]2CN[C@@H]3CCCS(=O)(=O)N2C3)C[C@H](C)O1 [Example 121, (βR)-4-chloro-β-[(2R,4r,6S)-2,6-dimethyltetrahydro-2H-pyran-4-yl]-N-(2-{2-[(6R,9S)-2,2-dioxido-2-thia-1,7-diazabicyclo[4.3.1]dec-9-yl]ethyl}-3-fluorophenyl)-L-phenylalaninamide] | 0.0057
Cn1nc([C@H](c2ccc(Cl)c(F)c2)[C@H](N)C(=O)Nc2cncc(F)c2CC[C@H]2CN[C@@H]3CCCS(=O)(=O)N2C3)cc1C(F)(F)F [Example 266, (βR)-4-chloro-N-(4-{2-[(6R,9S)-2,2-dioxido-2-thia-1,7-diazabicyclo[4.3.1]dec-9-yl]ethyl}-5-fluoropyridin-3-yl)-3-fluoro-β-[1-methyl-5-(trifluoromethyl)-1H-pyrazol-3-yl]-L-phenylalaninamide] | 0.011
CCO[C@H]1CC[C@H]([C@H](c2ccc(Cl)c(F)c2)[C@H](N)C(=O)Nc2cncc(F)c2CC[C@H]2CN[C@@H]3CCCS(=O)(=O)N2C3)CC1 [Example 253, (βR)-4-chloro-N-(4-{2-[(6R,9S)-2,2-dioxido-2-thia-1,7-diazabicyclo[4.3.1]dec-9-yl]ethyl}-5-fluoropyridin-3-yl)-β-[(1r,4R)-4-ethoxycyclohexyl]-3-fluoro-L-phenylalaninamide] | 0.0058
COC(=O)N[C@H](C(=O)Nc1cccc(F)c1CCC1CNC2CCCS(=O)(=O)N1C2)[C@H](c1ccc(F)cc1)C1CC(F)(F)C1 (stereo partly drawn) [Example 65, methyl [(1S,2S)-2-(3,3-difluorocyclobutyl)-1-({2-[2-(2,2-dioxido-2-thia-1,7-diazabicyclo[4.3.1]dec-9-yl)ethyl]-3-fluorophenyl}carbamoyl)-2-(4-fluorophenyl)ethyl]carbamate] | 0.047
COC(=O)N[C@H](C(=O)Nc1c(F)ccc(F)c1CC[C@H]1CN[C@@H]2CCCS(=O)(=O)N1C2)[C@@H](c1ccc(F)cc1)[C@H]1C[C@@H](C)O[C@@H](C)C1 [Example 147, methyl [(1S,2R)-2-[(2R,4r,6S)-2,6-dimethyltetrahydro-2H-pyran-4-yl]-1-[(2-{2-[(6R,9S)-2,2-dioxido-2-thia-1,7-diazabicyclo[4.3.1]dec-9-yl]ethyl}-3,6-difluorophenyl)carbamoyl]-2-(4-fluorophenyl)ethyl]carbamate] | 0.022
COC(=O)N[C@H](C(=O)Nc1cccc(F)c1CC[C@H]1CN[C@@H]2CCCS(=O)(=O)N1C2)[C@@]1(c2ccc(Cl)cc2)C[C@@H](C)O[C@@H](C)C1 [Example 167, methyl {(1S)-1-[(2R,4r,6S)-4-(4-chlorophenyl)-2,6-dimethyltetrahydro-2H-pyran-4-yl]-2-[(2-{2-[(6R,9S)-2,2-dioxido-2-thia-1,7-diazabicyclo[4.3.1]dec-9-yl]ethyl}-3-fluorophenyl)amino]-2-oxoethyl}carbamate] | 0.027
